Laboratory results taken from PubChem BioAssay (NCI).
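1) Cells in 96-well plates. 2) Compound, 48 h, 5 concentrations. 3) Linear interpolation between surrounding doses. 4) Unreached endpoint = highest concentration. GI50 = concentration required for 50% inhibition of growth. TGI: total growth inhibition.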

Key:
Test in all cases: NCI tumour cell line growth inhibition, 48 h
HL-60(TB) leukemia = system: HL-60(TB) leukemia
CAKI-1 renal = system: CAKI-1 renal
SR leukemia = system: SR leukemia
LOX IMVI melanoma = system: LOX IMVI melanoma
OVCAR-4 ovarian = system: OVCAR-4 ovarian
HT29 colon = system: HT29 colon
HOP-62 NSCLC = system: HOP-62 NSCLC
MOLT-4 leukemia = system: MOLT-4 leukemia
UACC-257 melanoma = system: UACC-257 melanoma
RPMI-8226 leukemia = system: RPMI-8226 leukemia

Compound	TGI (HL-60(TB) leukemia)	TGI (CAKI-1 renal)	TGI (SR leukemia)	TGI (LOX IMVI melanoma)	TGI (OVCAR-4 ovarian)	TGI (HT29 colon)	TGI (HOP-62 NSCLC)	TGI (MOLT-4 leukemia)	TGI (UACC-257 melanoma)	GI50 (HL-60(TB) leukemia)	GI50 (CAKI-1 renal)	GI50 (SR leukemia)	GI50 (HT29 colon)	GI50 (RPMI-8226 leukemia)	TGI (RPMI-8226 leukemia)	GI50 (HOP-62 NSCLC)	GI50 (MOLT-4 leukemia)	GI50 (UACC-257 melanoma)	GI50 (LOX IMVI melanoma)	GI50 (OVCAR-4 ovarian)
COc1cc2ccnc(-c3c4ccccc4c(N)c4c(OC)c(OC)ccc34)c2cc1OC	4.44 µM	8.72 µM	6.19 µM	3.08 µM	11.7 µM	11.7 µM	14.9 µM	9.53 µM	4.37 µM	–	–	–	–	–	–	–	–	–	–	–
Cc1ncc(C(=O)Nc2ccc(CN3CCN(C)CC3)c(C(F)(F)F)c2)cc1C#Cc1cnc(N)c2ncccc12	7.67 µM	1.46 µM	–	–	–	2.08 µM	11.9 µM	–	2.55 µM	0.164 µM	0.0719 µM	0.472 µM	0.0435 µM	0.538 µM	3.98 µM	0.704 µM	0.0946 µM	0.128 µM	–	–
CCOC(=O)c1ccc(Nc2sc(C(=O)c3cccc([N+](=O)[O-])c3)c(N)c2C#N)cc1	–	0.253 µM	4.71 µM	15.4 µM	57.1 µM	3.12 µM	6.39 µM	6.59 µM	> 31.6 µM	–	0.044 µM	0.034 µM	0.0398 µM	0.333 µM	20.3 µM	0.108 µM	0.203 µM	0.301 µM	0.148 µM	0.612 µM
O=C1OC(C2=CC(=O)c3ccccc3C2=O)C(Cl)=C1Cl (stereo not drawn)	> 100 µM	> 100 µM	70.3 µM	49.9 µM	–	> 100 µM	> 100 µM	> 100 µM	> 100 µM	–	–	–	–	–	47.3 µM	–	–	–	–	–
CCCCCCCCCCCC[n+]1ccccc1	1.99 µM	–	2.15 µM	2.72 µM	14.5 µM	5.47 µM	5.57 µM	3.66 µM	3.97 µM	0.422 µM	–	0.202 µM	0.381 µM	0.29 µM	1.67 µM	1.9 µM	1.17 µM	1.23 µM	1.17 µM	0.515 µM
COc1cc2ccnc3c2c(c1OC)-c1ccc(=O)ccc1-3	–	39.5 µM	21.4 µM	46.5 µM	74.7 µM	68.9 µM	> 100 µM	18.7 µM	63.5 µM	–	16.5 µM	2.95 µM	14.8 µM	18.4 µM	51.9 µM	32.5 µM	3.6 µM	25.4 µM	21 µM	21.7 µM
N#Cc1cccc(/C=C(/C(=O)c2ccccc2)c2ccccc2)c1	–	16.1 µM	> 100 µM	10.2 µM	20.3 µM	15 µM	13.5 µM	23.4 µM	18.2 µM	–	3.92 µM	2.94 µM	4.23 µM	2.82 µM	9.27 µM	3.99 µM	3.19 µM	4.05 µM	2.89 µM	6.35 µM
COc1ccc2c(c1)sc1nc(-c3ccccc3)c(-c3ccc(O)c(OC)c3)n12	> 100 µM	> 100 µM	> 100 µM	> 100 µM	> 100 µM	> 100 µM	> 100 µM	> 100 µM	> 100 µM	5.33 µM	8.54 µM	3.34 µM	3.56 µM	–	–	37.8 µM	12.8 µM	> 100 µM	7.67 µM	39.1 µM
COc1cc(/C=C/c2ccc(OC(C)=O)cc2)cc(OC)c1OC	52.6 µM	> 100 µM	–	94.1 µM	> 100 µM	> 100 µM	> 100 µM	75.7 µM	> 100 µM	–	–	–	–	–	68.6 µM	–	–	–	–	–
CCC[CH2][Ge]([CH2]CCC)([CH2]CCC)[O]C(=O)C(O)c1ccccc1 (stereo not drawn)	4.3 µM	24.1 µM	–	13.6 µM	29 µM	20.8 µM	23.4 µM	> 39.4 µM	15.5 µM	–	5.9 µM	–	3.32 µM	0.641 µM	42.2 µM	9.67 µM	0.602 µM	1.08 µM	1.85 µM	0.794 µM
O=Cc1ccc(Oc2c3ccccc3nc3occc23)cc1	56.9 µM	30.2 µM	44.7 µM	–	52.9 µM	61.9 µM	37.9 µM	24.4 µM	30.1 µM	22.9 µM	12.7 µM	16 µM	23.1 µM	12.2 µM	48.3 µM	14.8 µM	6.89 µM	12.2 µM	–	15.8 µM
NC(CSc1nc2ccccn2c1[N+](=O)[O-])C(=O)O (stereo not drawn)	–	> 100 µM	> 100 µM	–	> 100 µM	> 100 µM	> 100 µM	–	> 100 µM	–	–	–	–	–	> 100 µM	–	–	–	–	–
